# Measured values reported in ChEMBL document CHEMBL5046296 (J Med Chem, 2022).
# Assays:
# [1] = Cmax in Sprague-Dawley rat plasma with CCI induced thermal hyperalgesia at 0.1 mg/kg, po measured at 5.75 hrs post dose; type: ADME, organism-based; design: route oral, dose 0.1 mg/kg, time 5.75 hrs
# Rattus norvegicus [2] = assay: Analgesic activity in streptozotocin induced diabetic peripheral neuropathic mechanical allodynia in overnight fasted Sprague-Dawley rat model assessed as efficacy at 3 mg/kg, po measured at 5.5 hrs post dose; type: functional
# [3] = biological target: Serine/threonine-protein kinase LATS2 (Homo sapiens, UniProt Q9NRM7); assay: Inhibition of LATS2 (unknown origin)
# [4] = Oral bioavailability in rat at 3 mg/kg; type: ADME, organism-based; conditions: in vivo
# [5] = MRT in mouse at 2 mg/kg, iv; type: ADME, organism-based; conditions: in vivo
# [6] = biological target: Hepatic sodium/bile acid cotransporter (Homo sapiens, UniProt Q14973); assay: Inhibition of NTCP (unknown origin)
# [7] = Ratio of drug concentration in spinal cord to plasma of overnight fasted Sprague-Dawley rat model with streptozotocin induced diabetic peripheral neuropathic mechanical allodynia at 1 mg/kg, po measured at 5.5 hrs post dose; type: ADME, organism-based
# [8] = Protein binding in cynomolgus monkey plasma assessed as unbound fraction at 10 uM incubated for 5 hrs by LC-MS/MS analysis; type: ADME, cell-free, Macaca fascicularis
# [9] = Tmax in mouse at 3 mg/kg, po; type: ADME, organism-based; conditions: in vivo
# [10] = biological target: MAP kinase-interacting serine/threonine-protein kinase 1 (Homo sapiens, UniProt Q9BUB5); assay: Inhibition of MNK1 (unknown origin)
# [11] = AUC (infinity) in monkey at 3 mg/kg, po; type: ADME, organism-based, Macaca mulatta; design: route oral, time infinity, dose 3 mg/kg; conditions: rhesus monkey, in vivo
# Cytochrome P450 3A4 [12] = biological target: T1, Cytochrome P450 3A4 (Homo sapiens, UniProt P08684); assay: Time dependent inhibition of CYP3A4 (unknown origin) using BSF as substrate measured at 30 mins; type: ADME
# [13] = biological target: BMP-2-inducible protein kinase (Homo sapiens, UniProt Q9NSY1); assay: Inhibition of BIKE (unknown origin)
# [14] = Clearance in mouse at 2 mg/kg, iv; type: ADME, organism-based; conditions: in vivo
# [15] = Permeability of compound at pH 5.5 measured after 4 hrs by PAMPA assay; type: ADME; conditions: read-out: permeability
# Rattus norvegicus [16] = assay: Analgesic activity in streptozotocin induced diabetic peripheral neuropathic mechanical allodynia in overnight fasted Sprague-Dawley rat model assessed as reduction in pain response at 3 mg/kg, po measured after 5.5 hrs post treatment; type: functional; design: scale not given: the % may be the effect or the level left
# Homo sapiens [17] = species: Homo sapiens; assay: Inhibition of sodium channel (unknown origin) at 10 uM at 4 Hz electrophysiological method relative to control
# [18] = Drug concentration in Sprague-Dawley rat spinal cord with CCI induced thermal hyperalgesia at 0.1 mg/kg, po measured at 5.75 hrs post dose; type: ADME, organism-based; conditions: read-out: Ct
# [19] = biological target: Solute carrier organic anion transporter family member 1B1 (Homo sapiens, UniProt Q9Y6L6); assay: Inhibition of OATP1B1 (unknown origin)
# [20] = Cmax in dog at 3 mg/kg, po; type: ADME, organism-based, Canis lupus familiaris; design: route oral, dose 3 mg/kg; conditions: in vivo
# [21] = Cmax in naive Sprague-Dawley rat plasma at 30 mg/kg, po measured at 5.25 hrs post dose; type: ADME, organism-based; design: route oral, time 5.25 hrs, dose 30 mg/kg
# Cytochrome P450 3A4 [22] = biological target: T1, Cytochrome P450 3A4; assay: Time dependent inhibition of CYP3A4 (unknown origin) using MDZ as substrate measured at 30 mins; type: ADME
# [23] = MRT in dog at 2 mg/kg, iv; type: ADME, organism-based, Canis lupus familiaris; conditions: in vivo
# [24] = biological target: Solute carrier organic anion transporter family member 1B3 (Homo sapiens, UniProt Q9NPD5); assay: Inhibition of OATP1B3 (unknown origin)
# [25] = Cmax in rat at 3 mg/kg, po; type: ADME, organism-based; design: route oral, dose 3 mg/kg; conditions: in vivo
# [26] = Protein binding in mouse brain assessed as unbound fraction at 1 uM incubated for 4 hrs by LC-MS/MS analysis; type: ADME, tissue-based
# [27] = Apparent elimination half life in monkey at 2 mg/kg, iv; type: ADME, organism-based, Macaca mulatta; conditions: rhesus monkey, in vivo, read-out: betat1/2(app) (converted)
# Homo sapiens [28] = species: Homo sapiens; assay: Inhibition of calcium channel (unknown origin) at 10 uM by electrophysiological method relative to control
# Aorta = assay: Cardiotoxicity in rat aortic ring assessed as relaxation of phenylephrine induced aortic ring contraction at 10 uM incubated for 1 hr; type: toxicity, tissue-based; design: scale not given: the % may be the effect or the level left
# Cytochrome P450 2C9 = Cytochrome P450 2C9 (Homo sapiens, UniProt P11712); assay: Inhibition of CYP2C9 (unknown origin); type: ADME
# [29] = biological target: Solute carrier family 22 member 6 (Homo sapiens, UniProt Q4U2R8); assay: Inhibition of OAT1 (unknown origin)
# [30] = Ratio of drug concentration in spinal cord to plasma of overnight fasted Sprague-Dawley rat model with streptozotocin induced diabetic peripheral neuropathic mechanical allodynia at 3 mg/kg, po measured at 5.5 hrs post dose; type: ADME, organism-based
# [31] = Protein binding in mouse plasma assessed as unbound fraction at 10 uM measured after 5 hrs by LC-MS/MS analysis; type: ADME, cell-free
# [32] = Clearance in monkey at 2 mg/kg, iv; type: ADME, organism-based, Macaca mulatta; conditions: rhesus monkey, in vivo
# [33] = Oral bioavailability in dog at 3 mg/kg; type: ADME, organism-based, Canis lupus familiaris; conditions: in vivo
# [34] = Tmax in dog at 3 mg/kg, po; type: ADME, organism-based, Canis lupus familiaris; conditions: in vivo
# [35] = Apparent elimination half life in mouse at 2 mg/kg, iv; type: ADME, organism-based; conditions: in vivo, read-out: betat1/2(app) (converted)
# [36] = Drug concentration in overnight fasted Sprague-Dawley rat spinal cord with streptozotocin induced diabetic peripheral neuropathic mechanical allodynia at 0.1 mg/kg, po measured at 5.5 hrs post dose; type: ADME, organism-based; conditions: read-out: Ct
# [37] = Cmax in overnight fasted Sprague-Dawley rat plasma with streptozotocin induced diabetic peripheral neuropathic mechanical allodynia at 3 mg/kg, po measured at 5.5 hrs post dose; type: ADME, organism-based; design: route oral, time 5.5 hrs, dose 3 mg/kg
# Cytochrome P450 2C19 = Cytochrome P450 2C19 (Homo sapiens, UniProt P33261); assay: Inhibition of CYP2C19 (unknown origin); type: ADME
# [38] = Cmax in Sprague-Dawley rat plasma with CCI induced thermal hyperalgesia at 1 mg/kg, po measured at 5.75 hrs post dose; type: ADME, organism-based; design: route oral, dose 1 mg/kg, time 5.75 hrs
# [39] = Drug concentration in naive Sprague-Dawley rat spinal cord at 3 mg/kg, po measured at 5.25 hrs post dose; type: ADME, organism-based; conditions: read-out: Ct
# [40] = Solubility of the compound in FaSSIF; type: physicochemical
# [41] = Solubility of the compound in citrate at pH 4.4 using crystalline form of sample; type: physicochemical
# [42] = AUC (infinity) in monkey at 2 mg/kg, iv; type: ADME, organism-based, Macaca mulatta; design: time infinity, route intravenous, dose 2 mg/kg; conditions: rhesus monkey, in vivo
# [43] = Metabolic stability in human liver microsomes assessed as half life; type: ADME, Microsome
# [44] = Protein binding in human plasma assessed as unbound fraction at 10 uM measured after 5 hrs by LC-MS/MS analysis; type: ADME, cell-free
# [45] = Permeability across apical to basolateral side in human Caco-2 cells at 3 uM measured after 2 hrs by LC-MS/MS analysis; type: ADME, cell-based; conditions: read-out: permeability
# Rattus norvegicus [46] = assay: Analgesic activity in CCI induced thermal hyperalgesia Sprague-Dawley rat model assessed as efficacy at 0.3 mg/kg, po measured at 5.75 hrs post dose; type: functional
# Rattus norvegicus [47] = assay: Analgesic activity in streptozotocin induced diabetic peripheral neuropathic mechanical allodynia in overnight fasted Sprague-Dawley rat model assessed as efficacy at 1 mg/kg, po measured at 5.5 hrs post dose; type: functional
# [48] = Cmax in overnight fasted Sprague-Dawley rat plasma with streptozotocin induced diabetic peripheral neuropathic mechanical allodynia at 1 mg/kg, po measured at 5.5 hrs post dose; type: ADME, organism-based; design: route oral, time 5.5 hrs, dose 1 mg/kg
# T1 sequence (P08684 whole entry): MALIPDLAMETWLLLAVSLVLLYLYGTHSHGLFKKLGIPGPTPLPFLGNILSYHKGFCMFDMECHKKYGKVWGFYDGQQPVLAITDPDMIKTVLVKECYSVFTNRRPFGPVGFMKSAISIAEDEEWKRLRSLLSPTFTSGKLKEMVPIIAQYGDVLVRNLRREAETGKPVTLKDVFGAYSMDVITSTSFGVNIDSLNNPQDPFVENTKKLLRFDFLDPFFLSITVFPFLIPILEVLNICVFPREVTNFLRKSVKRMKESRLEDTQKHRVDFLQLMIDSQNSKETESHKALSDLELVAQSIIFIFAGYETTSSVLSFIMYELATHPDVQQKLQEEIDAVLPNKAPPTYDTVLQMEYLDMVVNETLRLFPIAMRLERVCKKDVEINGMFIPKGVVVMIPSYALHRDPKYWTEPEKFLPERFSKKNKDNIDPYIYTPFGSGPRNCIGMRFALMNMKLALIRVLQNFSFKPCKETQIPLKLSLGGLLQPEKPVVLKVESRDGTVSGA
# Sequence of Serine/threonine-protein kinase LATS2 (Q9NRM7 whole entry): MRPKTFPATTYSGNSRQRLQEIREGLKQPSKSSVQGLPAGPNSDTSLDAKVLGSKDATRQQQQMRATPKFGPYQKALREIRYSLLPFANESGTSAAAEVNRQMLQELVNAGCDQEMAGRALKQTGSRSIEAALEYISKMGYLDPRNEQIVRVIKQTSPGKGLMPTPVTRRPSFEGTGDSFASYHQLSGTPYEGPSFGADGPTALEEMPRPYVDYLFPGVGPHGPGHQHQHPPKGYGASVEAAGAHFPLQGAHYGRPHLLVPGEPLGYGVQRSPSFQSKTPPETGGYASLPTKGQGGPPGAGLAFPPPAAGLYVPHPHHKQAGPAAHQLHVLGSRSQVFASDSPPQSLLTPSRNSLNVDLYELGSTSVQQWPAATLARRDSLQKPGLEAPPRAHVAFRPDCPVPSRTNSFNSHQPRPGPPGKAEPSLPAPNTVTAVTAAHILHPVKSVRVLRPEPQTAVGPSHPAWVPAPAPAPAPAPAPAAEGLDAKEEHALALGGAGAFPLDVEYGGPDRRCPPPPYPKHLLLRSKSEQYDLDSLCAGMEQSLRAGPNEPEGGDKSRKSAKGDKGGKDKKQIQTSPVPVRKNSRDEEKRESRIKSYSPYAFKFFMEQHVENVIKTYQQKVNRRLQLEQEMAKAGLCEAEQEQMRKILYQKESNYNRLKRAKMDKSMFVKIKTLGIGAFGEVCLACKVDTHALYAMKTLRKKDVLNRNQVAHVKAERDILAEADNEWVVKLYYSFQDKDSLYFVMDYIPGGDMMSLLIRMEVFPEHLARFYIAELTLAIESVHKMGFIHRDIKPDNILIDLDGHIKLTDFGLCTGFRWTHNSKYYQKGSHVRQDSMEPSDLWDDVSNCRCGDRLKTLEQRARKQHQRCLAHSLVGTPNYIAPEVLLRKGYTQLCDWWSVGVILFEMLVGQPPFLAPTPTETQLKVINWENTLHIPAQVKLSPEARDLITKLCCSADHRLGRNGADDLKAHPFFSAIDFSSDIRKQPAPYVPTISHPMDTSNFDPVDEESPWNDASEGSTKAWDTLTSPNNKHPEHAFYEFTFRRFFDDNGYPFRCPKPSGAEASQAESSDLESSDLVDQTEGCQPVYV
# Sequence of Solute carrier organic anion transporter family member 1B3 (Q9NPD5 whole entry): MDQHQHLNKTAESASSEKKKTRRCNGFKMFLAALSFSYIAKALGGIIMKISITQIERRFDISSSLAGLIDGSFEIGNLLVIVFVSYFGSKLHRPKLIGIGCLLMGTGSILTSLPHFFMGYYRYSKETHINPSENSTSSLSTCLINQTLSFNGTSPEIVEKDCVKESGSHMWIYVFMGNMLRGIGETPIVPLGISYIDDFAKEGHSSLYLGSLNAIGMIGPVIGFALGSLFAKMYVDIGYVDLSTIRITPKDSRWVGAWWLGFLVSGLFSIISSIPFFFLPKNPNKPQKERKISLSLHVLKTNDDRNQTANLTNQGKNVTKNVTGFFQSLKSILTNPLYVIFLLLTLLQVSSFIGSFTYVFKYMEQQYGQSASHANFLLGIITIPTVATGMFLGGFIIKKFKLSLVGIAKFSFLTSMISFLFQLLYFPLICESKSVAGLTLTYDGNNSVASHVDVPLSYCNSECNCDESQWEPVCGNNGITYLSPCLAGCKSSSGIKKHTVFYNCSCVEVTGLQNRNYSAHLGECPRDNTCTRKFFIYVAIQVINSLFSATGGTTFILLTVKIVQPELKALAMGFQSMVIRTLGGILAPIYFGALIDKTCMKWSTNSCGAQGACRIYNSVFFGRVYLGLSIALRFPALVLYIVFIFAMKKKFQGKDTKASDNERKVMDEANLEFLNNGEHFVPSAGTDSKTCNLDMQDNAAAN
# Sequence of Hepatic sodium/bile acid cotransporter (Q14973 whole entry): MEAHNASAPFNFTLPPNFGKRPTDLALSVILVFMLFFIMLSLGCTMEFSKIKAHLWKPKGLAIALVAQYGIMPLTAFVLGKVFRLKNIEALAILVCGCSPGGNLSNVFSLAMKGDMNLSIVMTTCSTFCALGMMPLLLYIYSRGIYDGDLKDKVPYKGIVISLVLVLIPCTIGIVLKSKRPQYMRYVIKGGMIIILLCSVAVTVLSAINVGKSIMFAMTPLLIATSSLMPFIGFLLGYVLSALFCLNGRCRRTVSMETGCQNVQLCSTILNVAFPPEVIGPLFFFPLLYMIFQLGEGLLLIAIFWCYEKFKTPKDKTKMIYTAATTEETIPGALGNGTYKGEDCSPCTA
# Sequence of BMP-2-inducible protein kinase (Q9NSY1 whole entry): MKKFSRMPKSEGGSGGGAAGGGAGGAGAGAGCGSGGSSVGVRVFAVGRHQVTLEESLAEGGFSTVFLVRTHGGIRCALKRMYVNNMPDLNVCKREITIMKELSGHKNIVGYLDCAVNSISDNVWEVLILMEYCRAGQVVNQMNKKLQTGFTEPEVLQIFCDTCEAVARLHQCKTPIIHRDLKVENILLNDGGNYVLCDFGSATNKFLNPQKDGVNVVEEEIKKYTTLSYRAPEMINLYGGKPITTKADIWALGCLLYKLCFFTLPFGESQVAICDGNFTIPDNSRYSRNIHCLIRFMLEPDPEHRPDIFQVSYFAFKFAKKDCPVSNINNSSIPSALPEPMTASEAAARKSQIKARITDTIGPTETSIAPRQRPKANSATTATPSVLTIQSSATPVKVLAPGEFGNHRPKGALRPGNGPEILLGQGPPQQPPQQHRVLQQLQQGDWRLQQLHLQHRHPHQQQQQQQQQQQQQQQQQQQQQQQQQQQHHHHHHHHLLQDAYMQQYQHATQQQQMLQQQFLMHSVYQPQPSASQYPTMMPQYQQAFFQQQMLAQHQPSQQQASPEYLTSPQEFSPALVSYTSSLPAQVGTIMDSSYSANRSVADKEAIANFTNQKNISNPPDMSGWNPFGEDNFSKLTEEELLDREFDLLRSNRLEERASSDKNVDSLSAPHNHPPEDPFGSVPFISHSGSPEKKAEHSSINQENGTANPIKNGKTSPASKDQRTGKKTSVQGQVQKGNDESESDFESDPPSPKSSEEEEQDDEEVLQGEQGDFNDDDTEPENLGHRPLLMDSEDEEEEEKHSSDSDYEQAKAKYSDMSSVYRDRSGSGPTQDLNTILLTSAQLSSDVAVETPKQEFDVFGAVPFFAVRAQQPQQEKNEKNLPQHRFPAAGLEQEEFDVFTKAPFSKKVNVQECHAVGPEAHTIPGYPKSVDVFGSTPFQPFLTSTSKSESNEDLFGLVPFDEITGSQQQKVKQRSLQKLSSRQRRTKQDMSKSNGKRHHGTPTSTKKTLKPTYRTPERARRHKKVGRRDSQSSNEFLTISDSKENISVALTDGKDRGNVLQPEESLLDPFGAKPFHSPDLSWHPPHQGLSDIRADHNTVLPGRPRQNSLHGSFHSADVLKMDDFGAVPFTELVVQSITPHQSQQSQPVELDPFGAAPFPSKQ
# Sequence of Cytochrome P450 2C19 (P33261 whole entry): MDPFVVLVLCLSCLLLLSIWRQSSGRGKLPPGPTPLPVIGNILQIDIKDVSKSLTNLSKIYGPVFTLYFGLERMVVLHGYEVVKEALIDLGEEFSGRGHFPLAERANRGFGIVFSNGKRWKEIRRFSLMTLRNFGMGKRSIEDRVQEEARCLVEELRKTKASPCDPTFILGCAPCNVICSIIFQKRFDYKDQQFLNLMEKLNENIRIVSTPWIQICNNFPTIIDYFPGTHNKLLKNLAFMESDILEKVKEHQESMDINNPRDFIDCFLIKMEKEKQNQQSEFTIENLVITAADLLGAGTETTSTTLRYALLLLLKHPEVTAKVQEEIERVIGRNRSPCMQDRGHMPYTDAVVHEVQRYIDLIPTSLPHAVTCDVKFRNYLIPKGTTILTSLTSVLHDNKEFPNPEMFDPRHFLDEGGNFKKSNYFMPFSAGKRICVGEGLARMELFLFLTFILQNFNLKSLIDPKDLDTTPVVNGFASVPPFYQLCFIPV
# Sequence of Solute carrier family 22 member 6 (Q4U2R8 whole entry): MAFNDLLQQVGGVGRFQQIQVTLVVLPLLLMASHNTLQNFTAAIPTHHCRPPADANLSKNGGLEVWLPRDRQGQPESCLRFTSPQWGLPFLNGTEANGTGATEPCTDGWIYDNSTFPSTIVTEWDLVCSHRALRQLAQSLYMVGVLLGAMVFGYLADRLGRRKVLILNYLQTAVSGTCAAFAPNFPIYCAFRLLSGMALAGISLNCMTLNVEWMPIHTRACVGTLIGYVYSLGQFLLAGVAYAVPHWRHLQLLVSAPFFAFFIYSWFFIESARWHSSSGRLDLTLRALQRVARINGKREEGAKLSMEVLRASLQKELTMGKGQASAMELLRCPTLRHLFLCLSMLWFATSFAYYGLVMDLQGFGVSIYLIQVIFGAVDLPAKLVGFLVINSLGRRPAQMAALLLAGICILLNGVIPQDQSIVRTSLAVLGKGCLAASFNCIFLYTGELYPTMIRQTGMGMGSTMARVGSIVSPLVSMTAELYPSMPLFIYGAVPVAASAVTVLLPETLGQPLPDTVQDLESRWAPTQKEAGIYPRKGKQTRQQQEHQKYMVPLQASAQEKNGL
smiles,measurement,setting,value
CC(C)C[C@](C)(N)COc1ccc(-c2ccnc(C(F)F)c2)nc1C(F)F [PILAVAPADIN],Cmax,[1],5 nM
same,Efficacy,Rattus norvegicus [2],63%
same,IC50,[3],0.66 µM
same,bioavailability,[4],50%
same,MRT,[5],63.8 h
same,IC50,[6],> 30 µM
same,Kp at 5.5 h,[7],9
same,"fraction unbound at 5 h, 10 µM",[8],0.053
same,Tmax,[9],5 h
same,IC50,[10],0.16 µM
same,AUC(0-inf),[11],270 ng·h/mL
same,IC50,Cytochrome P450 3A4 [12],> 20 µM
same,IC50,[13],1.9 µM
same,clearance,[14],5 mL/min/kg
same,Papp at 4 h,[15],60 ×10⁻⁶ cm/s
same,Activity,Rattus norvegicus [16],60%
same,inhibition,Homo sapiens [17],61%
same,concentration at 5.75 h,[18],214 nM
same,IC50,[19],> 30 µM
same,Cmax,[20],200 ng/mL
same,Cmax,[21],1650 nM
same,IC50,Cytochrome P450 3A4 [22],> 40 µM
same,MRT,[23],6.9 h
same,IC50,[24],> 30 µM
same,Cmax,[25],60 ng/mL
same,"fraction unbound at 4 h, 1 µM",[26],0.007
same,half-life,[27],5.7 h
same,inhibition,Homo sapiens [28],40%
same,Activity,Aorta,42%
same,IC50,Cytochrome P450 2C9,> 20 µM
same,IC50,[29],> 30 µM
same,Kp at 5.5 h,[30],7
same,"fraction unbound at 5 h, 10 µM",[31],0.046
same,clearance,[32],41.2 mL/min/kg
same,bioavailability,[33],87%
same,Tmax,[34],1.3 h
same,half-life,[35],44.2 h
same,concentration at 5.5 h,[36],75 nM
same,Cmax,[37],366 nM
same,IC50,Cytochrome P450 2C19,> 20 µM
same,Cmax,[38],63 nM
same,concentration at 5.25 h,[39],3860 nM
same,solubility,[40],700 µg/mL
same,solubility,[41],1400 µg/mL
same,AUC(0-inf),[42],980 ng·h/mL
same,half-life,[43],> 2 h
same,"fraction unbound at 5 h, 10 µM",[44],0.085
same,"Papp A→B at 2 h, 3 µM",[45],19.9 ×10⁻⁶ cm/s
same,Efficacy,Rattus norvegicus [46],68%
same,Efficacy,Rattus norvegicus [47],60%
same,Cmax,[48],92 nM
